Where a name gives a salt, the structure may show the parent alone. Read-outs that look alike come from different tables or passages of the source.
Test system: Acinetobacter baumannii ATCC17961
Test: Antimicrobial susceptibility testing: 90% growth inhibitory concentration (IC90) determination in Iso-Sensitest broth, OD600 growth
Format: cell-based
Summary of the method: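 Growth monitored at 600 nm every 20 min for 16 h at 35±2 °C, inoculum ~5×10^(5) CFU/ml in Iso-Sensitest medium. Compounds in 10-point twofold series, e.g. 50 to 0.097 μM final; 90% inhibitory concentration taken from log-phase growth.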

[1] = Acinetobacter baumannii, ATCC17961, 16 h, read-out: A. baumannii ATCC 17961 IC90 (uM), strain ATCC 17961, OD600 growth over 16 h
[2] = Acinetobacter baumannii, ATCC17961, 16 h, strain ATCC 17961, OD600 growth over 16 h, read-out: A. baumannii ATCC 17961 IC90
[3] = strain ATCC 17961, OD600 growth over 16 h, read-out: A. baumannii ATCC 17961 IC90

SMILES | IC90 [2] [µM] | IC90 [1] [µM] | other results
CCc1cc(Nc2nccn3c(-c4cn(CCC(C)(C)O)nc4C(F)(F)F)cnc23)ccc1C(=O)NCCOCCN [Example 311, N-[2-(2-aminoethoxy)ethyl]-2-ethyl-4-[[3-[1-(3-hydroxy-3-methylbutyl)-3-(trifluoromethyl)pyrazol-4-yl]imidazo[1,2-a]pyrazin-8-yl]amino]benzamide formate] |  | 0.769 | 
C#CCn1cc(-c2cnc3c(Nc4ccc(C(=O)NCCOCCN)c(Cl)c4)nccn23)c(C(F)(F)F)n1 [Example 249, N-[2-(2-aminoethoxy)ethyl]-2-chloro-4-[[3-[1-prop-2-ynyl-3-(trifluoromethyl)pyrazol-4-yl]imidazo[1,2-a]pyrazin-8-yl]amino]benzamide] | 0.047 |  | 
CCc1cc(Nc2nccn3c(-c4c[nH]nc4C(F)(F)F)cnc23)ccc1C(=O)NCCNC(=O)[C@H]1CC[C@H](N)C1 [Example 588, N-(2-((1S,3S)-3-aminocyclopentane-1-carboxamido)ethyl)-2-ethyl-4-((3-(3-(trifluoromethyl)-1H-pyrazol-4-yl)imidazo[1,2-a]pyrazin-8-yl)amino)benzamide formate] |  | 0.46 | 
CCc1cc(Nc2nccn3c(-c4cn(CC#N)nc4C(F)(F)F)cnc23)ccc1C(=O)N[C@H](C)C(=O)N1CCC(N)CC1 [Example 697, N-[(1R)-2-(4-amino-1-piperidyl)-1-methyl-2-oxo-ethyl]-4-[[3-[1-(cyanomethyl)-3-(trifluoromethyl)pyrazol-4-yl]imidazo[1,2-a]pyrazin-8-yl]amino]-2-ethyl-benzamide formate] |  | 0.371 | 
CCc1cc(Nc2nccn3c(-c4cn(C(C)C#N)nc4C(F)(F)F)cnc23)ccc1C(=O)NCCOCCCN (stereo not drawn) [Example 639, N-(2-(3-aminopropoxy)ethyl)-4-((3-(1-(1-cyanoethyl)-3-(trifluoromethyl)-1H-pyrazol-4-yl)imidazo[1,2-a]pyrazin-8-yl)amino)-2-ethylbenzamide formate] |  | 0.228 | 
C[C@H](NC(=O)c1ccc(Nc2nccn3c(-c4c[nH]nc4C(F)(F)F)cnc23)cc1Cl)C(=O)N1CCNCC1 [Example 140, 2-chloro-N-[(2S)-1-oxo-1-piperazin-1-ylpropan-2-yl]-4-[[3-[3-(trifluoromethyl)-1H-pyrazol-4-yl]imidazo[1,2-a]pyrazin-8-ylamino]benzamide formate] |  |  | IC90 [3]: 3.31 µM
O=C(CC1CCNCC1)N1CCN(C(=O)c2ccc(Nc3nccn4c(-c5c[nH]nc5C(F)(F)F)cnc34)cc2Cl)CC1 [Example 570, 1-(4-(2-chloro-4-((3-(3-(trifluoromethyl)-1H-pyrazol-4-yl)imidazo[1,2-a]pyrazin-8-yl)amino)benzoyl)piperazin-1-yl)-2-(piperidin-4-yl) ethan-1-one formate] |  | 0.256 | 
CCc1cc(Nc2nccn3c(-c4cn(C)nc4C(F)(F)F)cnc23)ccc1C(=O)NCCNC(=O)[C@@H]1C[C@](C)(O)CN1 [Example 447, (2S,4S)-N-[2-[[2-ethyl-4-[[3-[1-methyl-3-(trifluoromethyl)pyrazol-4-yl]imidazo[1,2-a]pyrazin-8-yl]amino]benzoyl]amino]ethyl]-4-hydroxy-4-methylpyrrolidine-2-carboxamide formate] |  | 4.19 | 
CNC(=O)c1ccc(Nc2nccn3c(-c4cn(C(F)F)nc4C(F)(F)F)cnc23)cc1Cl [Example 10, 2-chloro-4-[[3-[1-(difluoromethyl)-3-(trifluoromethyl)pyrazol-4-yl]imidazo[1,2-a]pyrazin-8-yl]amino]-N-methylbenzamide] | 0.458 |  | 
Cc1cc(Nc2nccn3c(-c4cn(C)nc4C(F)(F)F)cnc23)ccc1C(=O)N1CCN(C(=O)N[C@H]2CNC[C@@H]2O)CC1 [Example 470, formic acid; N-[(3S,4S)-4-hydroxypyrrolidin-3-yl]-4-[2-methyl-4-[[3-[1-methyl-3-(trifluoromethyl)pyrazol-4-yl]imidazo[1,2-a]pyrazin-8-yl]amino]benzoyl]piperazine-1-carboxamide] |  | 0.793 | 
CCc1cc(Nc2nccn3c(-c4cn(CC#N)nc4C(F)(F)F)cnc23)ccc1C(=O)NCCCNC(=O)CN [Example 802, N-(3-(2-aminoacetamido)propyl)-4-((3-(1-(cyanomethyl)-3-(trifluoromethyl)-1H-pyrazol-4-yl)imidazo[1,2-a]pyrazin-8-yl)amino)-2-ethylbenzamide formate] |  | 3.54 | 
N#CCn1cc(-c2cnc3c(Nc4ccc(C(=O)N5CCN(C(=O)N6CC[C@@H](N)C6)CC5)c(Cl)c4)nccn23)c(C(F)(F)F)n1 [Example 179, 2-[4-[8-4-[4-[(3R)-3-aminopyrrolidine-1-carbonyl]piperazine-1-carbonyl]-3-chloroanilino]imidazo[1,2-a]pyrazin-3-yl]-3-(trifluoromethyl) pyrazol-1-yl]acetonitrile formate] |  |  | IC90 [3]: 0.181 µM
Cn1nccc1Cn1cc(-c2cnc3c(Nc4ccc(C(=O)N5CCNCC5)c(Cl)c4)nccn23)c(C(F)(F)F)n1 [Example 181, [2-chloro-4-[[3-[1-[(2-methylpyrazol-3-yl)methyl]-3-(trifluoromethyl)pyrazol-4-yl]imidazo[1,2-a]pyrazin-8-yl]amino]phenyl]-piperazin-1-ylmethanone formate] |  | 0.293 | 
CCc1cc(Nc2nccn3c(-c4cn(CC#N)nc4C(F)F)cnc23)ccc1C(=O)NCCOCCN [Example 18, N-[2-(2-aminoethoxy)ethyl]-4-[[3-[1-(cyanomethyl)-3-(difluoromethyl)pyrazol-4-yl]imidazo[1,2-a]pyrazin-8-yl]amino]-2-ethylbenzamide] | 0.26 |  | 
C=CCn1cc(-c2cnc3c(Nc4ccc(C(=O)NCCOCC(C)(C)N)c(CC)c4)nccn23)c(C(F)(F)F)n1 [Example 45, N-[2-(2-amino-2-methylpropoxy)ethyl]-2-ethyl-4-[[3-[1-prop-2-enyl-3-(trifluoromethyl)pyrazol-4-yl]imidazo[1,2-a]pyrazin-8-yl]amino] benzamide] |  |  | IC90 [3]: 0.074 µM

Second part, led by results:

IC90 [2] [µM] | SMILES | IC90 [1] [µM] | other results
0.196 | CCc1cc(Nc2nccn3c(-c4cn(CC(F)F)nc4C(F)(F)F)cnc23)ccc1C(=O)NCCCNC(=O)[C@H]1C[C@H](N)C1 [Example 542, N-(3-((1r,3r)-3-aminocyclobutane-1-carboxamido)propyl)-4-((3-(1-(2,2-difluoroethyl)-3-(trifluoromethyl)-1H-pyrazol-4-yl)imidazo[1,2-a]pyrazin-8-yl)amino)-2-ethylbenzamide formate] |  | 
0.557 | Cc1cc(Nc2nccn3c(-c4cn(CC(F)F)nc4C(F)(F)F)cnc23)cc(F)c1C(=O)N[C@H](C)CNC(=O)[C@@H]1C[C@@H](O)CN1 [Example 744, (2S,4R)-N-((R)-2-(4-((3-(1-(2,2-difluoroethyl)-3-(trifluoromethyl)-1H-pyrazol-4-yl)imidazo[1,2-a]pyrazin-8-yl)amino)-2-fluoro-6-methylbenzamido)propyl)-4-hydroxypyrrolidine-2-carboxamide] |  | 
0.496 | N#CCn1cc(-c2cnc3c(Nc4ccc(C(=O)N5CCN(CC(=O)N[C@H]6CCNC6)CC5)c(Cl)c4)nccn23)c(C(F)(F)F)n1 [Example 605, (S)-2-(4-(2-chloro-4-((3-(1-(cyanomethyl)-3-(trifluoromethyl)-1H-pyrazol-4-yl)imidazo[1,2-a]pyrazin-8-yl)amino)benzoyl)piperazin-1-yl)-N-(pyrrolidin-3-yl) acetamide formate] |  | 
0.701 | CCc1cc(Nc2nccn3c(-c4cn(Cc5ccncn5)nc4C(F)(F)F)cnc23)ccc1C(=O)NC [Example 282, 2-ethyl-N-methyl-4-[[3-[1-(pyrimidin-4-ylmethyl)-3-(trifluoromethyl)pyrazol-4-yl]imidazo[1,2-a]pyrazin-8-yl]amino]benzamide] |  | 
0.11 | N#CCn1cc(-c2cnc3c(Nc4ccc(C(=O)N[C@H]5[C@@H]6CN(C(=O)N[C@@H]7CNC[C@H]7O)C[C@@H]65)c(Cl)c4)nccn23)c(C(F)(F)F)n1 [Example 825, (1s,5r)-6-[[2-chloro-4-[[3-[1-(cyanomethyl)-3-(trifluoromethyl)pyrazol-4-yl]imidazo[1,2-α]pyrazin-8-yl]amino]benzoyl]amino]-N-[(3R,4R)-4 hydroxypyrrolidin-3-yl]-3-azabicyclo[3.1.0]hexane-3-carboxamide formic acid salt] |  | 
1.4 | CCc1cc(Nc2nccn3c(-c4c[nH]nc4C(F)(F)F)cnc23)ccc1C(=O)NCCCN [Example 365, N-(3-aminopropyl)-2-ethyl-4-[[3-[3-(trifluoromethyl)-1H-pyrazol-4-yl]imidazo[1,2-a]pyrazin-8-yl]amino]benzamide hydrochloride] |  | 
0.397 | CCc1cc(Nc2nccn3c(-c4c[nH]nc4C(F)(F)F)cnc23)ccc1C(=O)NCCCNC(=O)CNC(=O)C(F)(F)F [Example 708, 2-ethyl-N-(3-(2-(2,2,2-trifluoroacetamido)acetamido)propyl)-4-((3-(3-(trifluoromethyl)-1H-pyrazol-4-yl)imidazo [1,2-a]pyrazin-8-yl)amino)benzamide] |  | 
0.358 | C#CCn1cc(-c2cnc3c(Nc4ccc(C(=O)N5CCN(C(=O)[C@H](C)N)CC5)c(CC)c4)nccn23)c(C(F)F)n1 [Example 694, (S)-2-amino-1-(4-(4-((3-(3-(difluoromethyl)-1-(prop-2-yn-1-yl)-1H-pyrazol-4-yl)imidazo[1,2-a]pyrazin-8-yl)amino)-2-ethylbenzoyl)piperazin-1-yl)propan-1-one] |  | 
0.918 | CCc1cc(Nc2nccn3c(-c4c[nH]nc4C(F)(F)F)cnc23)ccc1C(=O)N1CCN(C(=O)C2CCNCC2)CC1 [Example 354, [2-ethyl-4-[[3-[3-(trifluoromethyl)-1H-pyrazol-4-yl]imidazo[1,2-a]pyrazin-8-yl]amino]phenyl]-[4-(piperidine-4-carbonyl)piperazin-1-yl]methanone hydrochloride] |  | 
